From patent US20240415914A1, “Water Dispersible Cannabinoid Compositions” (priority 2021, published 2024)

Assay: Stability of cannabinoid and Vitamin E components of Beverage 1 (AB White) stored at 8° C. and 21-25° C., LCMSMS over 570 days
Format: physicochemical
Conditions: for Stability in AB White, 8° C. (content by LCMSMS): beverage stored at 8° C.; for Stability in AB White, 21-25° C. (content by LCMSMS): beverage stored at 21-25° C.
Protocol: The LCMSMS was calibrated for 0-1000 ng/ml cannabinoids with the same resin material used in the preparation of the concentrates. At each time period, 100 ml of beverage was diluted with 10 ml of methanol and injected into the LCMSMS for analysis.

CCCCCc1cc(O)c2c(c1)OC(C)(CCC=C(C)C)C=C2 (centres unmarked) [CBC, cannabichromene]
Stability in AB White, 8° C. (content by LCMSMS) (day 0): 0.320 µg/mL
Stability in AB White, 8° C. (content by LCMSMS) (day 1): 0.314 µg/mL
Stability in AB White, 8° C. (content by LCMSMS) (day 2): 0.315 µg/mL
Stability in AB White, 8° C. (content by LCMSMS) (day 3): 0.322 µg/mL
Stability in AB White, 8° C. (content by LCMSMS) (day 5): 0.322 µg/mL
Stability in AB White, 8° C. (content by LCMSMS) (day 8): 0.318 µg/mL
Stability in AB White, 8° C. (content by LCMSMS) (day 9): 0.319 µg/mL
Stability in AB White, 8° C. (content by LCMSMS) (day 10): 0.314 µg/mL
Stability in AB White, 8° C. (content by LCMSMS) (day 11): 0.314 µg/mL
Stability in AB White, 8° C. (content by LCMSMS) (day 12): 0.319 µg/mL
Stability in AB White, 8° C. (content by LCMSMS) (day 15): 0.317 µg/mL
Stability in AB White, 8° C. (content by LCMSMS) (day 16): 0.320 µg/mL
Stability in AB White, 8° C. (content by LCMSMS) (day 17): 0.315 µg/mL
Stability in AB White, 8° C. (content by LCMSMS) (day 18): 0.312 µg/mL
Stability in AB White, 8° C. (content by LCMSMS) (day 19): 0.317 µg/mL
Stability in AB White, 8° C. (content by LCMSMS) (day 22): 0.315 µg/mL
Stability in AB White, 8° C. (content by LCMSMS) (day 23): 0.321 µg/mL
Stability in AB White, 8° C. (content by LCMSMS) (day 24): 0.316 µg/mL
Stability in AB White, 8° C. (content by LCMSMS) (day 25): 0.310 µg/mL
Stability in AB White, 8° C. (content by LCMSMS) (day 26): 0.316 µg/mL
Stability in AB White, 8° C. (content by LCMSMS) (day 29): 0.321 µg/mL
Stability in AB White, 8° C. (content by LCMSMS) (day 30): 0.317 µg/mL
Stability in AB White, 8° C. (content by LCMSMS) (day 60): 0.316 µg/mL
Stability in AB White, 8° C. (content by LCMSMS) (day 90): 0.318 µg/mL
Stability in AB White, 8° C. (content by LCMSMS) (day 120): 0.311 µg/mL
Stability in AB White, 8° C. (content by LCMSMS) (day 150): 0.314 µg/mL
Stability in AB White, 8° C. (content by LCMSMS) (day 180): 0.319 µg/mL
Stability in AB White, 8° C. (content by LCMSMS) (day 210): 0.309 µg/mL
Stability in AB White, 8° C. (content by LCMSMS) (day 240): 0.316 µg/mL
Stability in AB White, 8° C. (content by LCMSMS) (day 270): 0.316 µg/mL
Stability in AB White, 8° C. (content by LCMSMS) (day 300): 0.313 µg/mL
Stability in AB White, 8° C. (content by LCMSMS) (day 330): 0.316 µg/mL
Stability in AB White, 8° C. (content by LCMSMS) (day 360): 0.306 µg/mL
Stability in AB White, 8° C. (content by LCMSMS) (day 390): 0.310 µg/mL
Stability in AB White, 8° C. (content by LCMSMS) (day 420): 0.307 µg/mL
Stability in AB White, 8° C. (content by LCMSMS) (day 450): 0.312 µg/mL
Stability in AB White, 8° C. (content by LCMSMS) (day 480): 0.305 µg/mL
Stability in AB White, 8° C. (content by LCMSMS) (day 510): 0.295 µg/mL
Stability in AB White, 8° C. (content by LCMSMS) (day 540): 0.299 µg/mL
Stability in AB White, 8° C. (content by LCMSMS) (day 570): 0.293 µg/mL
Stability in AB White, 21-25° C. (content by LCMSMS) (day 0): 0.320 µg/mL
Stability in AB White, 21-25° C. (content by LCMSMS) (day 1): 0.313 µg/mL
Stability in AB White, 21-25° C. (content by LCMSMS) (day 2): 0.318 µg/mL
Stability in AB White, 21-25° C. (content by LCMSMS) (day 3): 0.311 µg/mL
Stability in AB White, 21-25° C. (content by LCMSMS) (day 5): 0.323 µg/mL
Stability in AB White, 21-25° C. (content by LCMSMS) (day 8): 0.319 µg/mL
Stability in AB White, 21-25° C. (content by LCMSMS) (day 9): 0.307 µg/mL
Stability in AB White, 21-25° C. (content by LCMSMS) (day 10): 0.312 µg/mL
Stability in AB White, 21-25° C. (content by LCMSMS) (day 11): 0.311 µg/mL
Stability in AB White, 21-25° C. (content by LCMSMS) (day 12): 0.316 µg/mL
Stability in AB White, 21-25° C. (content by LCMSMS) (day 15): 0.311 µg/mL
Stability in AB White, 21-25° C. (content by LCMSMS) (day 16): 0.321 µg/mL
Stability in AB White, 21-25° C. (content by LCMSMS) (day 17): 0.323 µg/mL
Stability in AB White, 21-25° C. (content by LCMSMS) (day 18): 0.313 µg/mL
Stability in AB White, 21-25° C. (content by LCMSMS) (day 19): 0.316 µg/mL
Stability in AB White, 21-25° C. (content by LCMSMS) (day 22): 0.322 µg/mL
Stability in AB White, 21-25° C. (content by LCMSMS) (day 23): 0.316 µg/mL
Stability in AB White, 21-25° C. (content by LCMSMS) (day 24): 0.308 µg/mL
Stability in AB White, 21-25° C. (content by LCMSMS) (day 25): 0.310 µg/mL
Stability in AB White, 21-25° C. (content by LCMSMS) (day 26): 0.308 µg/mL
Stability in AB White, 21-25° C. (content by LCMSMS) (day 29): 0.317 µg/mL
Stability in AB White, 21-25° C. (content by LCMSMS) (day 30): 0.317 µg/mL
Stability in AB White, 21-25° C. (content by LCMSMS) (day 60): 0.306 µg/mL
Stability in AB White, 21-25° C. (content by LCMSMS) (day 90): 0.305 µg/mL
Stability in AB White, 21-25° C. (content by LCMSMS) (day 120): 0.318 µg/mL
Stability in AB White, 21-25° C. (content by LCMSMS) (day 150): 0.312 µg/mL
Stability in AB White, 21-25° C. (content by LCMSMS) (day 180): 0.315 µg/mL
Stability in AB White, 21-25° C. (content by LCMSMS) (day 210): 0.307 µg/mL
Stability in AB White, 21-25° C. (content by LCMSMS) (day 240): 0.304 µg/mL
Stability in AB White, 21-25° C. (content by LCMSMS) (day 270): 0.316 µg/mL
Stability in AB White, 21-25° C. (content by LCMSMS) (day 300): 0.312 µg/mL
Stability in AB White, 21-25° C. (content by LCMSMS) (day 330): 0.312 µg/mL
Stability in AB White, 21-25° C. (content by LCMSMS) (day 360): 0.310 µg/mL
Stability in AB White, 21-25° C. (content by LCMSMS) (day 390): 0.303 µg/mL
Stability in AB White, 21-25° C. (content by LCMSMS) (day 420): 0.312 µg/mL
Stability in AB White, 21-25° C. (content by LCMSMS) (day 450): 0.310 µg/mL
Stability in AB White, 21-25° C. (content by LCMSMS) (day 480): 0.294 µg/mL
Stability in AB White, 21-25° C. (content by LCMSMS) (day 510): 0.293 µg/mL
Stability in AB White, 21-25° C. (content by LCMSMS) (day 540): 0.294 µg/mL
Stability in AB White, 21-25° C. (content by LCMSMS) (day 570): 0.295 µg/mL
